Measurements reported in patent publication US20080166805A1, “Culturing human cells and tissues in an N-glycolylneuraminic acid-free environment” (The Regents of the University of California, priority 2005, published 2008).

Columns and labels:
Caco-2 cells [1] = experiment: Neu5Gc and ManNGc feeding experiment, Caco-2 cells (fractionation, DMB-HPLC); assay type: cell-based; settings: Caco-2 cells fed 3 mM for 3 days, grown in human serum
Protocol: Cell Culture—Caco-2 cells were propagated in alpha-MEM containing GLUTAMAX™ (Invitrogen, San Diego, Calif.) and a mixture of ribonucleosides and deoxyribonucleosides (Gibco/Invitrogen, San Diego, Calif.) supplemented with 20% FCS. All the fibroblast cell lines and CHO-K1 cells were cultured in the same media supplemented respectively with 15% non-heat inactivated FCS or 10% heat inactivated FCS. Chimpanzee Fred and human […] EBV-transformed lymphoblasts were cultured in RPMI-1640 (Gibco/Invitrogen, San Diego, Calif.) supplemented with 10% heat inactivated FCS or 15% human serum. All of the cultures were maintained at 37° C., 5% CO2 atmosphere. In order to deplete any remaining Neu5Gc from FCS, the cells were split and cultured prior to Neu5Gc feeding experiments for at least 4 days in alpha-MEM supplemented with an adequate percentage of heat-inactivated premium human serum instead of FCS. The cells were then maintained under the same conditions during the whole feeding experiment. The human serum was heat inactivated at 56° C. for 30 min. before use. […]
(§1) Fractionation of the Labeled Cells—Washed cell pellets were sonicated into 500 μL of 20 mM sodium phosphate buffer or 20 mM Tris-HCl, pH 7.5, using 4×15 second pulses of a sonicator cell disrupter, model Some Dismembrator (Fisher Scientific, Hampton, N.J.) at a probe setting of 3. […] The pellet contained <5% of the incorporated sialic acid as determined using a radioactive tracer (data not shown.) The supernatant was therefore considered as the “total homogenate” fraction. A portion (20%) of the “total homogenate” fraction was taken for protein quantification and Sia analysis by DMB derivatization and HPLC analysis (as discussed below.) The remainder was centrifuged at 100,000×g for 1 h. […] All the Sias in these fractions were released with mild acid hydrolysis if necessary and then analyzed by HPLC after DMB derivatization. […]

[2] = system: normal human skin fibroblasts (WT); experiment: Neu5Gc/ManNGc feeding experiment, normal human skin fibroblasts; assay type: cell-based
Protocol: Cell Culture—Caco-2 cells were propagated in alpha-MEM containing GLUTAMAX™ (Invitrogen, San Diego, Calif.) and a mixture of ribonucleosides and deoxyribonucleosides (Gibco/Invitrogen, San Diego, Calif.) supplemented with 20% FCS. All the fibroblast cell lines and CHO-K1 cells were cultured in the same media supplemented respectively with 15% non-heat inactivated FCS or 10% heat inactivated FCS. Chimpanzee Fred and human […] EBV-transformed lymphoblasts were cultured in RPMI-1640 (Gibco/Invitrogen, San Diego, Calif.) supplemented with 10% heat inactivated FCS or 15% human serum. All of the cultures were maintained at 37° C., 5% CO2 atmosphere. In order to deplete any remaining Neu5Gc from FCS, the cells were split and cultured prior to Neu5Gc feeding experiments for at least 4 days in alpha-MEM supplemented with an adequate percentage of heat-inactivated premium human serum instead of FCS. The cells were then maintained under the same conditions during the whole feeding experiment. The human serum was heat inactivated at 56° C. for 30 min. before use.
Neu5Gc and ManNGc Feeding Experiment—Neu5Ac, Neu5Gc or ManNGc were dried, dissolved in the appropriate media supplemented with heat-inactivated human serum, sterilized using a Spin-X® (Corning Inc., Corning, N.Y.) and then added to the cells. The pH of the media containing Sia was adjusted to neutrality using sterilized 1M NaOH before starting the feeding experiment. Cells were cultured in the presence of up to 3 mM free Sia or ManNGc for 1 or 3 days at 37° C. At the end of the feeding, cells were washed with cold PBS, harvested either by scraping or with 2 mM EDTA for fibroblasts, and washed again with cold PBS prior to fractionation.
Fractionation of the Labeled Cells—Washed cell pellets were sonicated into 500 μL of 20 mM sodium phosphate buffer or 20 mM Tris-HCl, pH 7.5, using 4×15 second pulses of a sonicator cell disrupter, model Some Dismembrator (Fisher Scientific, Hampton, N.J.) at a probe setting of 3. The sonicate was centrifuged at 75×g for 15 min., and the pellet obtained consisted primarily of nuclei and unbroken cells. The pellet contained <5% of the incorporated sialic acid as determined using a radioactive tracer (data not shown.) The supernatant was therefore considered as the “total homogenate” fraction. A portion (20%) of the “total homogenate” fraction was taken for protein quantification and Sia analysis by DMB derivatization and HPLC analysis (as discussed below.) The remainder was centrifuged at 100,000×g for 1 h. The resulting pellet, called the “membrane” fraction, was then resuspended by sonication (15 sec.) in 200 μl of sodium acetate buffer, pH 5.5. The 100,000×g supernatant, called the “soluble” fraction was adjusted to 90% ethanol using absolute ice-cold ethanol, and placed overnight at −20° C. The flocculant precipitate, which represents the “soluble protein” fraction, was washed 3 times with 90% ice-cold ethanol and then resuspended in 200 μl of water. […] All the Sias in these fractions were released with mild acid hydrolysis if necessary and then analyzed by HPLC after DMB derivatization. Protein quantification was performed on the total homogenate, membrane and soluble protein fractions by using the BCA protein assay kit from Pierce (Rockford, Ill.) In some experiments, the resulting data obtained for the Sia bound to the membrane fraction and to the soluble proteins were pooled and presented here as a High Molecular Weight (HMW) fraction. […]

[3] = system: lysosomal sialic acid transporter mutant human fibroblasts (GM05520); experiment: Neu5Gc/ManNGc feeding, lysosomal sialic acid transporter mutant fibroblasts GM05520; assay type: cell-based; settings: GM05520 (ISSD) fibroblasts fed 3 mM for 3 days
Excerpt: Cell Lines—Caco-2 cells (human epithelial cells isolated from a primary colon carcinoma), normal human skin fibroblasts (CCD-919-SK) and chinese hamster ovary (CHO-K1) cells were purchased from ATCC (Manassas, Va.) Mutant human skin fibroblasts (GM05520, GM08496 and GM01718) were obtained from the Coriell Institute for Medical Research (Camden, N.J.) Chimpanzee Fred and human […] EBV-transformed lymphoblasts were a gift from Dr. Peter Parham, Stanford University, CA. […]
as §1

Caco-2 cells [4] = experiment: Endocytosis inhibition experiments (Neu5Gc uptake in Caco-2 cells); assay type: cell-based, human; settings: 3 mM Neu5Gc, no inhibitor
Protocol: The sonicate was centrifuged at 75×g for 15 min., and the pellet obtained consisted primarily of nuclei and unbroken cells. […] A portion (20%) of the “total homogenate” fraction was taken for protein quantification and Sia analysis by DMB derivatization and HPLC analysis (as discussed below.) The remainder was centrifuged at 100,000×g for 1 h. The resulting pellet, called the “membrane” fraction, was then resuspended by sonication (15 sec.) in 200 μl of sodium acetate buffer, pH 5.5. The 100,000×g supernatant, called the “soluble” fraction was adjusted to 90% ethanol using absolute ice-cold ethanol, and placed overnight at −20° C. The flocculant precipitate, which represents the “soluble protein” fraction, was washed 3 times with 90% ice-cold ethanol and then resuspended in 200 μl of water. The supernatant fluid representing the cytosolic low molecular weight (LMW) fraction was dried and brought up in 100 μL with water prior to Sia analysis. All the Sias in these fractions were released with mild acid hydrolysis if necessary and then analyzed by HPLC after DMB derivatization. Protein quantification was performed on the total homogenate, membrane and soluble protein fractions by using the BCA protein assay kit from Pierce (Rockford, Ill.) In some experiments, the resulting data obtained for the Sia bound to the membrane fraction and to the soluble proteins were pooled and presented here as a High Molecular Weight (HMW) fraction. Sialic Acid Release, DMB Derivatization and HPLC Analysis—The bound Sias from the total homogenate, membrane and soluble protein fractions were released using 2M acetic acid hydrolysis, 3 h. at 80° C. The released Sias, or free Sias, contained in the soluble LMW fraction were passed through a Microcon® YM-10 filter (Millipore, Bedford, Mass.) prior to DMB derivatization, which was done according to Hara et al., 1989. […] The eluant was monitored by fluorescence. Quantification of Sias—For all HPLC chromatograms, the quantification of Sias was done by comparison with known quantities of DMB derivatized Neu5Gc and Neu5Ac used as standards and then reported in terms of pmoles of Sia. For total homogenate, membrane and cytosolic protein fractions, this number was expressed per mg of protein. Due to minor sample-to-sample variations in amounts and recoveries, the data in the Figures is presented as percent of Neu5Gc over total Sias, rather than as absolute amounts. Endocytosis Inhibition Experiments—Caco-2 or normal fibroblast cells were split and cultured in alpha-MEM media supplemented respectively with 20% or 15% human serum for 4 days before starting the endocytosis drug inhibition experiments in order to deplete any Neu5Gc derived from FCS. Cells were then pre-treated for 2 h. with the specific inhibitors under the same culture conditions. Fresh media containing the same amount of inhibitor and 3 mM of Neu5Gc was then added to the cells, which were incubated for 16 h or 3 days and finally harvested and fractionated as described above.

[5] = normal fibroblasts fed 3 mM for 3 days

## O=C(CO)N[C@H]1[C@H]([C@H](O)[C@H](O)CO)OC(O)(C(=O)O)C[C@@H]1O (stereo partly drawn) [Neu5Gc, N-glycolylneuraminic acid]
Caco-2 cells [1]
  Neu5Gc as percent of total Sia, cytosolic low molecular weight (LMW) fraction: 70%
  Neu5Gc as percent of total Sia, high molecular weight fraction (HMW): 46%
  Neu5Gc as percent of total Sia, total homogenate (TH): 58%
[2]; [5]
  Neu5Gc as percent of total Sia, HMW fraction: 39%
  Neu5Gc as percent of total Sia, TH fraction: 28%
  Neu5Gc as percent of total Sia, cytosolic LMW fraction: 41%
[2]; normal wild-type (WT) fibroblasts fed 3 mM for 3 days
  percent of Neu5Gc incorporation into membrane-bound glycoconjugates: 37%
[3]
  percent of Neu5Gc in membrane-bound glycoconjugates: 5%
Caco-2 cells [4]
  Neu5Gc incorporation into membrane-bound glycoconjugates without inhibitor (percent of total Sia): 45%
